According to ChEMBL document CHEMBL3885881, “DrugMatrix”:

Organism: Rattus norvegicus
Experiment: DrugMatrix - Regimen: Daily Repeat
Assay type: toxicity, organism-based, Sprague-Dawley
Design: regimen Daily Repeat, gender Male, age 6-8 weeks
Conditions: in vivo, po, route oral GAVAGE, vehicle 100 % WATER; for ABSOLUTE BASOPHIL / ABSOLUTE EOSINOPHIL / ABSOLUTE LYMPHOCYTE / ABSOLUTE MONOCYTE / ABSOLUTE SEGMENTED NEUTROPHIL / BASOPHIL / EOSINOPHIL / ERYTHROCYTE COUNT / HEMATOCRIT / HEMOGLOBIN / LEUKOCYTE COUNT / LYMPHOCYTE / MEAN CORPUSCULAR HEMOGLOBIN / MEAN CORPUSCULAR HEMOGLOBIN CONCENTRATION / MEAN CORPUSCULAR VOLUME / MONOCYTE / NEUTROPHIL / NUCLEATED RED BLOOD CELLS / PLATELET COUNT: tissue Blood; for ALANINE AMINOTRANSFERASE / ALBUMIN / ALKALINE PHOSPHATASE / ASPARTATE AMINOTRANSFERASE / BLOOD UREA NITROGEN / CARBON DIOXIDE / CHLORIDE / CHOLESTEROL / CREATINE PHOSPHOKINASE / CREATININE / GLUCOSE / LACTATE DEHYDROGENASE / LIPASE / PHOSPHORUS / POTASSIUM / SODIUM / TOTAL BILIRUBIN / TOTAL PROTEIN / URIC ACID: tissue Plasma
[1] = 0 mg/kg, 72 h, dose level Control, time 3 day
[2] = 0 mg/kg, 120 h, dose level Control, time 5 day
[3] = 1000 mg/kg, 72 h, dose level High, time 3 day
[4] = 1000 mg/kg, 120 h, dose level High, time 5 day

SMILES: Cc1cc(NS(=O)(=O)c2ccc(N)cc2)no1 [SULFAMETHOXAZOLE]
- ABSOLUTE BASOPHIL [1]: 0 CELLS/uL
- ABSOLUTE EOSINOPHIL [1]: 102 CELLS/uL
- ABSOLUTE LYMPHOCYTE [1]: 12758 CELLS/uL
- ABSOLUTE MONOCYTE [1]: 197.17 CELLS/uL
- ABSOLUTE SEGMENTED NEUTROPHIL [1]: 1259.5 CELLS/uL
- BASOPHIL [1]: 0%
- EOSINOPHIL [1]: 0.83%
- ERYTHROCYTE COUNT [1]: 5.3 x10E6/uL
- HEMATOCRIT [1]: 33.47%
- HEMOGLOBIN [1]: 13.12 G/DL
- LEUKOCYTE COUNT [1]: 14.32 x10E3/uL
- LYMPHOCYTE [1]: 89.33%
- MEAN CORPUSCULAR HEMOGLOBIN [1]: 24.8 pg
- MEAN CORPUSCULAR HEMOGLOBIN CONCENTRATION [1]: 39.18 G/DL
- MEAN CORPUSCULAR VOLUME [1]: 63.25 fL
- MONOCYTE [1]: 1.33%
- NEUTROPHIL [1]: 8.5%
- NUCLEATED RED BLOOD CELLS [1]: 0 /100WBC
- PLATELET COUNT [1]: 1313.17 x10E3/uL
- ALANINE AMINOTRANSFERASE [1]: 52.67 u/L
- ALBUMIN [1]: 4.05 G/DL
- ALKALINE PHOSPHATASE [1]: 372 u/L
- ASPARTATE AMINOTRANSFERASE [1]: 82.83 u/L
- BLOOD UREA NITROGEN [1]: 15 mg/dL
- CARBON DIOXIDE [1]: 25.67 mmol/L
- CHLORIDE [1]: 102.17 MEQ/L
- CHOLESTEROL [1]: 68.83 mg/dL
- CREATINE PHOSPHOKINASE [1]: 285 u/L
- CREATININE [1]: 0.18 mg/dL
- GLUCOSE [1]: 149.17 mg/dL
- LACTATE DEHYDROGENASE [1]: 263.83 u/L
- LIPASE [1]: 10.17 u/L
- PHOSPHORUS [1]: 12.58 mg/dL
- POTASSIUM [1]: 6.58 MEQ/L
- SODIUM [1]: 144.22 MEQ/L
- TOTAL BILIRUBIN [1]: 0.22 mg/dL
- TOTAL PROTEIN [1]: 5.83 G/DL
- URIC ACID [1]: 1.58 mg/dL
- ABSOLUTE BASOPHIL [2]: 0 CELLS/uL
- ABSOLUTE EOSINOPHIL [2]: 24 CELLS/uL
- ABSOLUTE LYMPHOCYTE [2]: 11134.17 CELLS/uL
- ABSOLUTE MONOCYTE [2]: 56.33 CELLS/uL
- ABSOLUTE SEGMENTED NEUTROPHIL [2]: 1235.5 CELLS/uL
- BASOPHIL [2]: 0%
- EOSINOPHIL [2]: 0.17%
- ERYTHROCYTE COUNT [2]: 5.68 x10E6/uL
- HEMATOCRIT [2]: 35.72%
- HEMOGLOBIN [2]: 13.93 G/DL
- LEUKOCYTE COUNT [2]: 12.45 x10E3/uL
- LYMPHOCYTE [2]: 89.5%
- MEAN CORPUSCULAR HEMOGLOBIN [2]: 24.63 pg
- MEAN CORPUSCULAR HEMOGLOBIN CONCENTRATION [2]: 39.13 G/DL
- MEAN CORPUSCULAR VOLUME [2]: 62.97 fL
- MONOCYTE [2]: 0.5%
- NEUTROPHIL [2]: 9.83%
- NUCLEATED RED BLOOD CELLS [2]: 0 /100WBC
- PLATELET COUNT [2]: 1204 x10E3/uL
- ALANINE AMINOTRANSFERASE [2]: 59.5 u/L
- ALBUMIN [2]: 4.38 G/DL
- ALKALINE PHOSPHATASE [2]: 415.67 u/L
- ASPARTATE AMINOTRANSFERASE [2]: 91.33 u/L
- BLOOD UREA NITROGEN [2]: 17 mg/dL
- CARBON DIOXIDE [2]: 26.33 mmol/L
- CHLORIDE [2]: 104.17 MEQ/L
- CHOLESTEROL [2]: 77 mg/dL
- CREATINE PHOSPHOKINASE [2]: 249.67 u/L
- CREATININE [2]: 0.21 mg/dL
- GLUCOSE [2]: 148.33 mg/dL
- LACTATE DEHYDROGENASE [2]: 168.5 u/L
- LIPASE [2]: 10.17 u/L
- PHOSPHORUS [2]: 12.92 mg/dL
- POTASSIUM [2]: 7.09 MEQ/L
- SODIUM [2]: 148.37 MEQ/L
- TOTAL BILIRUBIN [2]: 0.23 mg/dL
- TOTAL PROTEIN [2]: 6.3 G/DL
- URIC ACID [2]: 1.77 mg/dL
- ABSOLUTE BASOPHIL [3]: 0 CELLS/uL
- ABSOLUTE EOSINOPHIL [3]: 124.33 CELLS/uL
- ABSOLUTE LYMPHOCYTE [3]: 12097 CELLS/uL
- ABSOLUTE MONOCYTE [3]: 47.67 CELLS/uL
- ABSOLUTE SEGMENTED NEUTROPHIL [3]: 1331 CELLS/uL
- BASOPHIL [3]: 0%
- EOSINOPHIL [3]: 1%
- ERYTHROCYTE COUNT [3]: 5.34 x10E6/uL
- HEMATOCRIT [3]: 34.63%
- HEMOGLOBIN [3]: 13.53 G/DL
- LEUKOCYTE COUNT [3]: 13.6 x10E3/uL
- LYMPHOCYTE [3]: 89%
- MEAN CORPUSCULAR HEMOGLOBIN [3]: 25.37 pg
- MEAN CORPUSCULAR HEMOGLOBIN CONCENTRATION [3]: 39.07 G/DL
- MEAN CORPUSCULAR VOLUME [3]: 64.87 fL
- MONOCYTE [3]: 0.33%
- NEUTROPHIL [3]: 9.67%
- NUCLEATED RED BLOOD CELLS [3]: 0 /100WBC
- PLATELET COUNT [3]: 1220 x10E3/uL
- ALANINE AMINOTRANSFERASE [3]: 53.33 u/L
- ALBUMIN [3]: 4.13 G/DL
- ALKALINE PHOSPHATASE [3]: 298.33 u/L
- ASPARTATE AMINOTRANSFERASE [3]: 88.67 u/L
- BLOOD UREA NITROGEN [3]: 16 mg/dL
- CARBON DIOXIDE [3]: 26 mmol/L
- CHLORIDE [3]: 101 MEQ/L
- CHOLESTEROL [3]: 79.67 mg/dL
- CREATINE PHOSPHOKINASE [3]: 356.33 u/L
- CREATININE [3]: 0.17 mg/dL
- GLUCOSE [3]: 141.33 mg/dL
- LACTATE DEHYDROGENASE [3]: 488.67 u/L
- LIPASE [3]: 10.67 u/L
- PHOSPHORUS [3]: 12.43 mg/dL
- POTASSIUM [3]: 6.92 MEQ/L
- SODIUM [3]: 145.43 MEQ/L
- TOTAL BILIRUBIN [3]: 0.2 mg/dL
- TOTAL PROTEIN [3]: 6.07 G/DL
- URIC ACID [3]: 1.63 mg/dL
- ABSOLUTE BASOPHIL [4]: 0 CELLS/uL
- ABSOLUTE EOSINOPHIL [4]: 0 CELLS/uL
- ABSOLUTE LYMPHOCYTE [4]: 14525.67 CELLS/uL
- ABSOLUTE MONOCYTE [4]: 88 CELLS/uL
- ABSOLUTE SEGMENTED NEUTROPHIL [4]: 1019.67 CELLS/uL
- BASOPHIL [4]: 0%
- EOSINOPHIL [4]: 0%
- ERYTHROCYTE COUNT [4]: 4.62 x10E6/uL
- HEMATOCRIT [4]: 29.8%
- HEMOGLOBIN [4]: 12.13 G/DL
- LEUKOCYTE COUNT [4]: 15.63 x10E3/uL
- LYMPHOCYTE [4]: 94%
- MEAN CORPUSCULAR HEMOGLOBIN [4]: 26.43 pg
- MEAN CORPUSCULAR HEMOGLOBIN CONCENTRATION [4]: 40.77 G/DL
- MEAN CORPUSCULAR VOLUME [4]: 64.9 fL
- MONOCYTE [4]: 0.33%
- NEUTROPHIL [4]: 5.67%
- NUCLEATED RED BLOOD CELLS [4]: 0 /100WBC
- PLATELET COUNT [4]: 1090.33 x10E3/uL
- ALANINE AMINOTRANSFERASE [4]: 53.33 u/L
- ALBUMIN [4]: 4.1 G/DL
- ALKALINE PHOSPHATASE [4]: 272.5 u/L
- ASPARTATE AMINOTRANSFERASE [4]: 97 u/L
- BLOOD UREA NITROGEN [4]: 17 mg/dL
- CARBON DIOXIDE [4]: 21 mmol/L
- CHLORIDE [4]: 107.5 MEQ/L
- CHOLESTEROL [4]: 73 mg/dL
- CREATINE PHOSPHOKINASE [4]: 1048.33 u/L
- CREATININE [4]: 0.21 mg/dL
- GLUCOSE [4]: 149 mg/dL
- LACTATE DEHYDROGENASE [4]: 184 u/L
- LIPASE [4]: 12 u/L
- PHOSPHORUS [4]: 10.23 mg/dL
- POTASSIUM [4]: 6.38 MEQ/L
- SODIUM [4]: 147.2 MEQ/L
- TOTAL BILIRUBIN [4]: 0.2 mg/dL
- TOTAL PROTEIN [4]: 5.97 G/DL
- URIC ACID [4]: 1.2 mg/dL
